Data from patent publication US11173158B2, “Medicinal agent and beverage/food for preventing cerebral dysfunction and improving same” (PTC Therapeutics MP, Inc., priority 2010, dated 2021).
“Also recorded” adds a separate entry of the source.

Legend:
PC12 cells = assay: Total amount of biopterin in PC12 cells after addition to culture medium; assay type: cell-based; conditions: 100 μM added, 0-180 min, FIG. 2A
Description: (§1) In Example 1, where PC12 cells and RBL2H3 cells were used as aromatic monoamine synthesizing cells and sepiapterin was added to a culture medium, evaluation was made for a total amount of biopterin in the cells (a total amount of tetrahydrobiopterin, and its oxidant, dihydrobiopterin and biopterin, the same shall apply hereinafter).
(§2) The PC12 cells are cultured cells having properties of a neuron and it is known that they synthesize dopamine, noradrenaline and adrenaline, with tetrahydrobiopterin used as a coenzyme. The RBL2H3 cells are cultured cells having properties of a mast cell and it is known that they synthesize serotonin, with tetrahydrobiopterin used as a coenzyme. […]
(§3) A total amount of biopterin in the cells was measured by using a system of high performance liquid chromatography/fluorescence detection (HPLC/FD) according to the Fukusima-Nixon method (refer to Non-Patent Document 8).
(§4) A principle of the Fukushima-Nixon method is as follows. Upon oxidation with iodine under strong acid or alkaline conditions, tetrahydrobiopterin is quantitatively oxidized into oxidized-form biopterin under acid conditions and oxidized into oxidized-form pterin in which a side chain in the 6th-class position is removed under alkaline conditions. […] The oxidized-form biopterin and the oxidized-form pterin have strong natural fluorescent characteristics (excitation: 350 nm, fluorescence: 450 nm). […]

RBL2H3 cells = assay: Total amount of biopterin in RBL2H3 cells after addition to culture medium; assay type: cell-based; conditions: 100 μM added, 0-180 min, FIG. 2B
Description: as §1, §2, §3, §4

SD rats = assay: Amounts of tetrahydrobiopterin, serotonin and 5-hydroxyindoleacetic acid in rat brain after oral administration; assay type: in vivo; conditions: 0-8 hours after administration; for amount of tetrahydrobiopterin in the brain: FIG. 5A
Description: In Example 4, rats were used to measure amounts of tetrahydrobiopterin, serotonin and 5-hydroxyindoleacetic acid in the brain on administration of sepiapterin. Rats used were SD rats (7-8 week old, males) purchased from Japan SLC, Inc. The rats were kept in a dark place for 12 hours and in a light place for 12 hours and fed ad libitum with a diet (“MM-3” made by Funabashi Farm Co., Ltd.) and sterilized tap water as drinking water. Sepiapterin or tetrahydrobiopterin was dissolved in 10 mM hydrochloric acid, the resultant of which was orally administered to the rats (n=6) under diethylether anesthesia. After 1, 1.5, 2, 3, 4, 6 and 8 hours, the brains were excised under pentobarbital sodium anesthesia (pentobarbital was intraperitoneally administered at 40 mg/kg five minutes before), and the brain was divided into two portions at the median line to obtain left and right brain samples. Rats not treated with sepiapterin or tetrahydrobiopterin were used as samples at 0 hours after administration according to the same procedures. […] Amounts of serotonin and 5-hydroxyindoleacetic acid in the brain were calculated by adding 3.5 times the volume of 1.43% ascorbic acid-containing 100 mM hydrochloric acid which contains N-methyl serotonin as an internal standard to a right brain sample, homogenizing brain tissues, adding […] (final concentration of 5.5%) thereto, ice-cooling the resultant for removing protein and treating a supernatant thereof in a system of high performance liquid chromatography/fluorescence detection (HPLC/FD), (refer to Non-Patent Document 9). In the high performance liquid chromatography, as with Example 1, etc., “Fine-SIL-C18-5T (made by JASCO Corporation)” was used as a column. […] In the system of high performance liquid chromatography/fluorescence detection (HPLC/FD), 5-hydroxytryptophan (5HTP), serotonin, N-methyl serotonin, tryptophan and 5-hydroxyindoleacetic acid are eluted in the above order, thus making it possible to determine quantitatively these substances at the same time.

hph-1 mice = assay: Amount of serotonin in brain of hph-1 mice after oral administration; assay type: in vivo, mouse; conditions: oral 20 mg/kg twice (2 h apart), brain 6 hours after first administration, FIG. 6
Description: The mice used were those of “hph-1” which were provided by Dr. […] (Institute of Metabolic Disease, Baylor University Medical Center, Dallas, Tex. 75226, USA). The mice are characterized as being defective in biosynthesis functions of tetrahydrobiopterin, with the level of tetrahydrobiopterin in the brain being from 40 to 50% as compared with ordinary mice. The mice were bred in a dark place for 12 hours and also in a light place for 12 hours and fed ad libitum with a diet (“MM-3” made by Funabashi Farm Co., Ltd.) and sterilized tap water as drinking water. An amount of serotonin was measured by dissolving sepiapterin or tetrahydrobiopterin in 0.01 M hydrochloric acid, thereafter administering orally each of the resultants at 20 mg/kg to the mice, giving another oral administration at the same dose two hours thereafter, and excised the brains from each mouse six hours after the first administration (n=7 in a group treated with sepiapterin, and n=8 in a group treated with tetrahydrobiopterin). […] In a control group, measurement was made similarly by orally administering 0.01M hydrochloric acid.

NZB mice = assay: Forced swim test in mice; assay type: in vivo, mouse; conditions: intraperitoneal single dose 10 mg/kg, test after 40 minutes, five-minute swimming, FIG. 7
Description: In Example 6, the mice were subjected to a forced swim test after administration of sepiapterin. The forced swim test of the mice is a test method for evaluating antidepressant effects, and length of “immobile” time is a criterion of depression. Evaluation is made in such a manner that the shorter the “immobile” time is, the greater the antidepressant effects are. The mice used were NZB mice purchased from. Japan SLC, Inc (7-week old males). The mice were maintained in a dark place for 12 hours and in a light place for 12 hours and fed ad libitum with a diet (“MM-3” made by Funabashi Farm Co., Ltd.) and sterilized tap water as drinking water, except when they were constrained in an experiment. The mice are characterized in that they are more likely to develop an auto-immune disease with advancement of age. […] The mice which had been subjected to 15-minute preliminary swimming without administration of a drug, etc., on the previous day were used in the experiment. The mice were intraperitoneally administered tetrahydrobiopterin (n=7) or sepiapterin (n=5) at a single dose of 10 mg/kg and subjected to a forced swim test after 40 minutes to measure “immobile” time. The test was conducted under dim light by using a 15 cm-across and 15 cm-deep water tank kept at a temperature of 22° C. “Immobile” time was measured by calculating an added value of “immobile” time during five-minute-swimming. […]

amount of tetrahydrobiopterin in the brain (SD rats)	SMILES	change in the total amount of biopterin in the cells (PC12 cells)	change in the total amount of biopterin in the cells (RBL2H3 cells)	amount of serotonin in the brain (SD rats; FIG. 5B)	amount of serotonin in the brain (hph-1 mice)	"immobile" time in forced swim test (NZB mice)
significant increase	C[C@H](O)C(=O)C1=Nc2c(nc(N)[nH]c2=O)NC1 [sepiapterin, 7,8-Dihydro-6-[(S)-2-hydroxy-1-oxopropyl]-pterin]	remarkable increase	remarkable increase	significantly increased	significant increase	significantly short
did not show an increase	C[C@H](O)[C@H](O)[C@H]1CNc2nc(N)[nH]c(=O)c2N1 [tetrahydrobiopterin, Tetrahydrobiopterin]	substantially no change; also recorded: slight increase	substantially no change; also recorded: slight increase	–	–	–
